Holding throughout (assay): NCI tumour cell line growth inhibition, 48 h
For assay [1], the system named is M14 melanoma.
Assay [2] relates to MDA-MB-435.
Assay [3] concerns MDA-MB-231 breast.
The subject of assay [4] is DU-145 prostate.
Assay [5] concerns TK-10 renal.
The subject of assay [6] is BT-549 breast.
For assay [7], the system named is PC-3 prostate.
Assay [8] has as its system A498 renal.
Assay [9] concerns SK-OV-3 ovarian.
The subject of assay [10] is HCC-2998 colon.
In assay [11] the test system is SNB-75 CNS.
Assay [12] concerns SN12C renal.
Assay [13] relates to MDA-N.
The subject of assay [14] is SF-539 CNS.
The subject of assay [15] is MCF7 breast.
For assay [16], the system named is M19-MEL melanoma.
For assay [17], the system named is SN12K1 renal.
For assay [18], the system named is SNB-78 CNS.
In assay [19] the test system is KM20L2 colon.
Assay [20] has as its system P388 leukemia.

The structures appear in SMILES notation.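 The compound was tested at five concentrations on cells cultured in 96-well plates, with a 48-hour exposure period. TGI is the concentration that stops growth completely.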 Some results are limits rather than exact numbers.

In PubChem BioAssay (NCI) one finds TGI data, which are given here for three molecules.

Regarding `Cc1cccc(N2C(=O)C3c4[nH]c5ccc(C)cc5c4C4CCC(C(C)(C)C)CC4C3C2=O)c1` (centres undefined), the TGI in assay [1] was more than 100 µM; in [2], more than 100 µM; in assay [3], 38.4 µM; in assay [4], 38.7 µM; in assay [5], 59.8 µM; in assay [6], more than 100 µM. In [7], the TGI was 31.3 µM.
For `CCCCOP(C)(=O)C(NC(=O)OCC)(C(F)(F)F)C(F)(F)F` (centres undefined), the TGI in assay [8], in assay [9], in assay [1], in assay [2], in assay [3] and in assay [4] was more than 100 µM each time. Also, the TGI in [10], in assay [11], in assay [5], in assay [12], in [6] and in [13] was more than 100 µM in each case. Further, the TGI in [14], in [7] and in assay [15] was more than 100 µM throughout.
In the case of `C=C1C(=O)OC2CC(C)C3C4OC4C(O)C3(C)C(O)C12` (centres undefined), the TGI in assay [8] is 44.4 µM; in assay [9], 98.8 µM; in assay [16] it was 69.7 µM; in assay [17], 70.8 µM; in assay [10] it was 75.8 µM; in assay [11] it was 92.1 µM. Moreover, the TGI turned out to be 61.6 µM in assay [18]; 72 µM in assay [12]; 42.8 µM in [19]; 43.7 µM in assay [20]; 45.6 µM in assay [14]; 66.7 µM in assay [15].
